Assays:
PsrA (His6-PsrA) = PsrA (His6-PsrA) (Pseudomonas aeruginosa, UniProt Q9HZJ9); assay: EMSA, inhibition of PsrA binding to promoter DNA; settings: 100 ng PpsrA, PrpoS or PexsC DNA; 0.01% Brij-58; inhibition seen from 5 µM
crystal structure = biological target: the molecule itself; assay: crystal structure

With CCCCCCCC/C=C\CCCCCCCC(=O)O [oleate] the “complete inhibition of DNA binding” value (PsrA (His6-PsrA)) was 50 µM.

B1: PsrA (PA3006) of Pseudomonas aeruginosa (natural protein)
chain: MAQSETVERILDAAEQLFAEKGFAETSLRLITSKAGVNLAAVNYHFGSKKALIQAVFSRFLGPFCASLEKELDRRQAKPEAQHATLEDLLHLLVSQAMAVKPRSGNDLSIFMRLLGLAFSQSQGHLRKYLEEVYGKVFRRYMLLVNEAAPKLPPIELFWRVHFMLGAAAFSMSGIKALRAMAETDFGVNTSTEQVMHLMVPFFAAGMRAESGIDDPLLAGAQLRPRNKTPAKA
modifications: selenomethionine in place of methionine
B1: binds (crystal structure).
